US9212201B2, “Antifungal and antiparasitic polyene macrolides” (priority 2010, dated 2015)
Converted amounts (≈) assume the structure as drawn. Read-outs that look alike come from different tables or passages of the source.

Key:
Coccidioides sp = format: cell-based
[1] = system: L. donovani intracellular amastigotes
[2] = background statement; cited from earlier work
Scopulariopsis spp. = experiment: In vitro antifungal susceptibility CLSI M38-A (MIC); format: cell-based; conditions: 5 isolates
Experimental: (§1) In addition, MFC ([…]) was done for each species. The geometric mean (GM) was calculated for each isolate using all three results. All testing was performed in triplicate to verify the reproducibility of the data.
(§2) Several of the more common molds were also tested and evaluated including five strains of Alternaria, Cladosporium, Scopulariopsis, Acremonium, and Paecilomyces. Also evaluated were some of the more uncommon fungi such as Exophilia jeanselmei (3), Emmonsia parvum (Chrysporium parvum) (2) and Epioccum spp. (2). Conventional ATCC strains of different Candida and Aspergillus species were used as controls.

Cladosporium spp. = experiment: as above; format: cell-based; conditions: 5 isolates
Experimental: as §1, §2

[3] = system: Emmonsia parvum (Chrysporium parvum); experiment: as above; format: cell-based; conditions: 2 isolates
Experimental: as §1, §2

Acremonium spp. = experiment: as above; format: cell-based; conditions: 5 isolates
Experimental: as §1, §2

Alternaria spp. = experiment: as above; format: cell-based; conditions: 5 isolates
Experimental: as §1, §2

Epioccum spp. = experiment: as above; format: cell-based; conditions: 2 isolates
Experimental: as §1, §2

Paecilomyces spp. = experiment: as above; format: cell-based; conditions: 5 isolates
Experimental: as §1, §2

C. parapsilosis = experiment: In vitro antifungal susceptibility CLSI M27-A2 (MIC, MFC); format: cell-based; conditions: C. parapsilosis (10)
[4] = 28-day toxicology in rats (clinical chemistry, NOAEL)
[5] = system: 14 clinical isolates: Coccidioides, Blastomyces, Histoplasma capsulatum, Paracoccidioides; format: cell-based; conditions: of 14 isolates
Water solubility = format: physicochemical; conditions: in words
E. jeanselmei = experiment: In vitro antifungal susceptibility CLSI M38-A (MIC); format: cell-based, Exophilia jeanselmei; conditions: 3 isolates
Experimental: as §1, §2

C. kefyr = experiment: In vitro antifungal susceptibility CLSI M27-A2 (MIC, MFC); format: cell-based; conditions: C. kefyr (10)
C. guilliermondii = experiment: as above; format: cell-based; conditions: C. guilliermondii (2)
[6] = system: Other Candida species (C. lipolytica, C. sake, C. sphaerica, C. norvegica); experiment: as above; format: cell-based; conditions: Other Candida spp. (4)
C. tropicalis = experiment: as above; format: cell-based; conditions: C. tropicalis (10)
Naegleria fowleri = experiment: Primary amoebic meningoencephalitis in mice; format: in vivo, Balb/c mice; conditions: 9 mg/kg/day for a total of 10 days
C. dubliniensis = experiment: In vitro antifungal susceptibility CLSI M27-A2 (MIC); format: cell-based; conditions: C. dubliniensis (5)
Experimental: as §1
Eighty-three Candida strains were evaluated. This included 12 different Candida species, which are the species that are most commonly involved in the majority of candidal infections in humans. The species include ten isolates of C. albicans, C. glabrata, C. parapsilosis, C. tropicalis, C. krusei, C. lusitaniae, and C. kefyr, along with five isolates of C. dubliniensis, and two isolates each of C. guilliermondii and C. rugosa. In addition, there was also one isolate each of C. sake, C. lipolytica, C. sphaerica and C. norvegica.

C. rugosa = experiment: In vitro antifungal susceptibility CLSI M27-A2 (MIC, MFC); format: cell-based; conditions: C. rugosa (2)
C. glabrata = experiment: as above; format: cell-based; conditions: C. glabrata (10)
[7] = rat sera, amphotericin B 0.5 mg, intravenously three days a week
[8] = rat sera, amphotericin B 1.0 mg, intravenously three days a week
[9] = rat sera, amphotericin B 1.5 mg, intravenously three days a week

C[C@@H]1[C@H](O)[C@@H](C)/C=C/C=C/C=C/C=C/C=C/C=C/C=C/[C@H](O[C@@H]2O[C@H](C)[C@@H](O)[C@H](N)[C@@H]2O)C[C@@H]2O[C@](O)(C[C@@H](O)C[C@@H](O)[C@H](O)CC[C@@H](O)C[C@@H](O)CC(=O)O[C@H]1C)C[C@H](O)[C@H]2C(=O)O [Amphotericin B, amphotericin B]
MFC higher than corifungin (Coccidioides sp; 2 C isolates): ≥ 4 fold
MFC (Coccidioides sp; 3 of the C isolates): ≥ 8 µg/mL
MIC (Coccidioides sp; 3 of the C isolates): 4 µg/mL (≈ 4.33 µM)
MIC (Coccidioides sp; Coccidioides sp isolate 1): 2 µg/mL (≈ 2.16 µM)
MFC (Coccidioides sp; Coccidioides sp isolate 1, >96% kill of the inoculum): 8 µg/mL (≈ 8.66 µM)
MIC (Coccidioides sp; Coccidioides sp isolate 2): 4 µg/mL (≈ 4.33 µM)
MFC (Coccidioides sp; Coccidioides sp isolate 2, >96% kill of the inoculum): 8 µg/mL (≈ 8.66 µM)
MIC (Coccidioides sp; Coccidioides sp isolate 3): 1 µg/mL (≈ 1.08 µM)
MFC (Coccidioides sp; Coccidioides sp isolate 3, >96% kill of the inoculum): > 8 µg/mL
MIC (Coccidioides sp; Coccidioides sp isolate 4): 4/4 mcg/mL
MFC (Coccidioides sp; Coccidioides sp isolate 4, >96% kill of the inoculum): 4/4 mcg/mL
MIC (Coccidioides sp; Coccidioides sp isolate 5): 4/4 mcg/mL
MFC (Coccidioides sp; Coccidioides sp isolate 5, >96% kill of the inoculum): 4/4 mcg/mL
IC50 [1]: 50 nM
Water solubility [2]: insoluble in water
GM (Scopulariopsis spp.): 0.95 µg/mL
MIC50 (Scopulariopsis spp.): 1 µg/mL (≈ 1.08 µM)
MIC Range (Scopulariopsis spp.): 0.5 to 1 µg/mL
GM (Cladosporium spp.): 0.7 µg/mL
MIC50 (Cladosporium spp.): 0.25 µg/mL (≈ 0.271 µM)
MIC Range (Cladosporium spp.): 0.25 to 0.5 µg/mL
GM [3]: 0.25 µg/mL
MIC50 [3]: 0.25 µg/mL (≈ 0.271 µM)
MIC Range [3]: 0.25 µg/mL (≈ 0.271 µM)
GM (Acremonium spp.): 8 µg/mL
MIC50 (Acremonium spp.): 8 µg/mL (≈ 8.66 µM)
MIC Range (Acremonium spp.): 8 µg/mL (≈ 8.66 µM)
GM (Alternaria spp.): 0.25 µg/mL
MIC50 (Alternaria spp.): 0.25 µg/mL (≈ 0.271 µM)
MIC Range (Alternaria spp.): 0.25 to 0.5 µg/mL
GM (Epioccum spp.): 1 µg/mL
MIC50 (Epioccum spp.): 1 µg/mL (≈ 1.08 µM)
MIC Range (Epioccum spp.): 1 µg/mL (≈ 1.08 µM)
GM (Paecilomyces spp.): 1.4 µg/mL
MIC50 (Paecilomyces spp.): 1 µg/mL (≈ 1.08 µM)
MIC Range (Paecilomyces spp.): 0.5 to 2 µg/mL
GM (geometric mean MIC) (C. parapsilosis): 0.7 µg/mL
MFC (C. parapsilosis): 2 µg/mL (≈ 2.16 µM)
MIC50 (C. parapsilosis): 0.5 µg/mL (≈ 0.541 µM)
MIC90 (C. parapsilosis): 1 µg/mL (≈ 1.08 µM)
MIC Range (C. parapsilosis): 0.5 to 1.0 µg/mL
ALB (Albumin) [4, 7]: 3.2
ALK (Alkaline Phosphatase) [4, 7]: 74
ALT (Alanine Aminotransferase) [4, 7]: 37
BUN (Blood Urea Nitrogen) [4, 7]: 15
Creat (Creatinine) [4, 7]: 0.6
GLOB (Globulin) [4, 7]: 2.6
Na (Sodium) [4, 7]: 140
ALB (Albumin) [4, 8]: 3.2
ALK (Alkaline Phosphatase) [4, 8]: 61
ALT (Alanine Aminotransferase) [4, 8]: 37
BUN (Blood Urea Nitrogen) [4, 8]: 16
Creat (Creatinine) [4, 8]: 0.6
GLOB (Globulin) [4, 8]: 2.7
Na (Sodium) [4, 8]: 140
TP (Total Protein) [4, 8]: 6.0
ALB (Albumin) [4, 9]: 3.4
ALK (Alkaline Phosphatase) [4, 9]: 69
ALT (Alanine Aminotransferase) [4, 9]: 36
BUN (Blood Urea Nitrogen) [4, 9]: 17
Creat (Creatinine) [4, 9]: 0.6
GLOB (Globulin) [4, 9]: 2.4
Na (Sodium) [4, 9]: 132
toxicity ([4]; rats, intravenously 1.5 mg/kg three times a week over 28 days): No toxicity was observed
cases in which MFCs equaled MICs [5]: 11/14
Water solubility (Water solubility): insoluble
GM (E. jeanselmei): 4.67 µg/mL
MIC50 (E. jeanselmei): 4 µg/mL (≈ 4.33 µM)
MIC Range (E. jeanselmei): 2 to 8 µg/mL
GM (geometric mean MIC) (C. kefyr): 1.25 µg/mL
MFC (C. kefyr): 1 µg/mL (≈ 1.08 µM)
MIC50 (C. kefyr): 1 µg/mL (≈ 1.08 µM)
MIC90 (C. kefyr): 2 µg/mL (≈ 2.16 µM)
MIC Range (C. kefyr): 0.12 to 2.0 µg/mL
GM (geometric mean MIC) (C. guilliermondii): 0.5 µg/mL
MFC (C. guilliermondii): 1 µg/mL (≈ 1.08 µM)
MIC Range (C. guilliermondii): 0.5 µg/mL (≈ 0.541 µM)
GM (geometric mean MIC) [6]: 0.95 µg/mL
MFC [6]: 2 µg/mL (≈ 2.16 µM)
MIC50 [6]: 1 µg/mL (≈ 1.08 µM)
MIC Range [6]: 0.5 to 1.0 µg/mL
GM (geometric mean MIC) (C. tropicalis): 0.95 µg/mL
MFC (C. tropicalis): 2 µg/mL (≈ 2.16 µM)
MIC50 (C. tropicalis): 1 µg/mL (≈ 1.08 µM)
MIC90 (C. tropicalis): 1 µg/mL (≈ 1.08 µM)
MIC Range (C. tropicalis): 0.5 to 1.0 µg/mL
survival (Naegleria fowleri): no improvement in survival over the control
GM (geometric mean MIC) (C. dubliniensis): 0.4 µg/mL
MIC50 (C. dubliniensis): 0.5 µg/mL (≈ 0.541 µM)
MIC90 (C. dubliniensis): 1 µg/mL (≈ 1.08 µM)
MIC Range (C. dubliniensis): 0.125 to 1 µg/mL
GM (geometric mean MIC) (C. rugosa): 0.83 µg/mL
MFC (C. rugosa): 2 µg/mL (≈ 2.16 µM)
MIC Range (C. rugosa): 0.5 to 1.0 µg/mL
GM (geometric mean MIC) (C. glabrata): 0.9 µg/mL
MFC (C. glabrata): 1 µg/mL (≈ 1.08 µM)
MIC50 (C. glabrata): 1 µg/mL (≈ 1.08 µM)
MIC90 (C. glabrata): 1 µg/mL (≈ 1.08 µM)
MIC Range (C. glabrata): 0.5 to 1.0 µg/mL
MIC50 (C. glabrata; listed as amphotericin B): 1.0 µg/mL (≈ 1.08 µM)
